Legend:
Experiment in all cases: single sensillum recording, transgenic fly at1 neurons
[1] = biological target: T1, HassOR6 (Helicoverpa assulta, UniProt R4JLZ7); conditions: agonist; mass loaded on filter paper in stimulus cartridge (10 μL in paraffin oil), 300 ms pulse; not a molar concentration
T1 construct: gene OR6; ORF in pVALIUM20, UAS-OR transgene expressed in Drosophila at1 neurons (Or67dGAL4 knock-in), host endogenous Orco; with Odorant receptor coreceptor (Drosophila melanogaster, endogenous in host neuron)
T1 sequence (R4JLZ7 1-425): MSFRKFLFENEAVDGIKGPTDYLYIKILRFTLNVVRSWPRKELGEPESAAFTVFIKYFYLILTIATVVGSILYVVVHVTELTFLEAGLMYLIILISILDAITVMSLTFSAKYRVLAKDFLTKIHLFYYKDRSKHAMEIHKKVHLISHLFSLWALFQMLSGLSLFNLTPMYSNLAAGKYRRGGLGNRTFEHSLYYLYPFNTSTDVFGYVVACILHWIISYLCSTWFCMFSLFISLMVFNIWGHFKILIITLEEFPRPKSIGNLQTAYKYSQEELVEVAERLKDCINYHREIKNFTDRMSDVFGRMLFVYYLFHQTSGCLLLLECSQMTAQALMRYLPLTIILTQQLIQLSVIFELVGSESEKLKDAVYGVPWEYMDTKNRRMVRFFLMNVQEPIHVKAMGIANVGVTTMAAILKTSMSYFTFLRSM
T1 sequence (Q9VNB5 1-486 partner): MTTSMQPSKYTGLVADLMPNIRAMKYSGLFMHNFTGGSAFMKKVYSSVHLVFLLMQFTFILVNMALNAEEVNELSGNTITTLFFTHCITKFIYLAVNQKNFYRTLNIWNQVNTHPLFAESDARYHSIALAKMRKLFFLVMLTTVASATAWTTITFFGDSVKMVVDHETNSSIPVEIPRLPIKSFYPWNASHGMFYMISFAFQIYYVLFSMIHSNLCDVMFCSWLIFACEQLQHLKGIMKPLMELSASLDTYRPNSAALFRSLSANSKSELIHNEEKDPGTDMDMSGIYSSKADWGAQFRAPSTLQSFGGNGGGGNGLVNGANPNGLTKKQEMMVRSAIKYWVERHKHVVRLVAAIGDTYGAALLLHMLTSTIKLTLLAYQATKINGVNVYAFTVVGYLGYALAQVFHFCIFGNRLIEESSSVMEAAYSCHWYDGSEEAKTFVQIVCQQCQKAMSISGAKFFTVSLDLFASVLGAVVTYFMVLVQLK

[2] = test system: T2, HvirOR6; design: species or system Heliothis virescens; conditions: agonist; mass loaded on filter paper in stimulus cartridge (10 μL in paraffin oil), 300 ms pulse; not a molar concentration
T2 construct: gene OR6; ORF in pVALIUM20, UAS-OR transgene expressed in Drosophila at1 neurons (Or67dGAL4 knock-in), host endogenous Orco; with Odorant receptor coreceptor (Drosophila melanogaster, endogenous in host neuron)

[3] = biological target: T3, HarmOR6 (Helicoverpa armigera, UniProt R4JSE3); conditions: agonist; mass loaded on filter paper in stimulus cartridge (10 μL in paraffin oil), 300 ms pulse; not a molar concentration
T3 construct: gene OR6; ORF in pVALIUM20, UAS-OR transgene expressed in Drosophila at1 neurons (Or67dGAL4 knock-in), host endogenous Orco; with Odorant receptor coreceptor (Drosophila melanogaster, endogenous in host neuron)
T3 sequence (R4JSE3 1-425): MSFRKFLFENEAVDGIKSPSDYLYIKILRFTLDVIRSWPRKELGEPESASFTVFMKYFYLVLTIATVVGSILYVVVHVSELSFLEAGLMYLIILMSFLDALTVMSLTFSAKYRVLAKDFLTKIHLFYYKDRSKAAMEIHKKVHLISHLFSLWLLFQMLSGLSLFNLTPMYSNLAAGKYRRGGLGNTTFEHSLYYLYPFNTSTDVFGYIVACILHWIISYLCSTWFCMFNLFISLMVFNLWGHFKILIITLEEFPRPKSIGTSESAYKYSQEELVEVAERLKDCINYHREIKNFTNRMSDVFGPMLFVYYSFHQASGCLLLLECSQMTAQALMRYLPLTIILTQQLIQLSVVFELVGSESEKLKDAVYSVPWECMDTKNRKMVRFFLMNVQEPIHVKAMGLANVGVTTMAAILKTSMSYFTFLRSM
T3 sequence (Q9VNB5 1-486 partner): T1 sequence (Q9VNB5 1-486 partner)

[4] = test system: T4, HvirOR13; design: species or system Heliothis virescens; conditions: agonist; mass loaded on filter paper in stimulus cartridge (10 μL in paraffin oil), 300 ms pulse; not a molar concentration
T4 construct: gene OR13; ORF in pVALIUM20, UAS-OR transgene expressed in Drosophila at1 neurons (Or67dGAL4 knock-in), host endogenous Orco; with Odorant receptor coreceptor (Drosophila melanogaster, endogenous in host neuron)

[5] = biological target: T5, HarmOR13 (Helicoverpa armigera, UniProt A0A075TD52); conditions: agonist; mass loaded on filter paper in stimulus cartridge (10 μL in paraffin oil), 300 ms pulse; not a molar concentration
T5 construct: gene OR13; ORF in pVALIUM20, UAS-OR transgene expressed in Drosophila at1 neurons (Or67dGAL4 knock-in), host endogenous Orco; with Odorant receptor coreceptor (Drosophila melanogaster, endogenous in host neuron)
T5 sequence (A0A075TD52 1-425): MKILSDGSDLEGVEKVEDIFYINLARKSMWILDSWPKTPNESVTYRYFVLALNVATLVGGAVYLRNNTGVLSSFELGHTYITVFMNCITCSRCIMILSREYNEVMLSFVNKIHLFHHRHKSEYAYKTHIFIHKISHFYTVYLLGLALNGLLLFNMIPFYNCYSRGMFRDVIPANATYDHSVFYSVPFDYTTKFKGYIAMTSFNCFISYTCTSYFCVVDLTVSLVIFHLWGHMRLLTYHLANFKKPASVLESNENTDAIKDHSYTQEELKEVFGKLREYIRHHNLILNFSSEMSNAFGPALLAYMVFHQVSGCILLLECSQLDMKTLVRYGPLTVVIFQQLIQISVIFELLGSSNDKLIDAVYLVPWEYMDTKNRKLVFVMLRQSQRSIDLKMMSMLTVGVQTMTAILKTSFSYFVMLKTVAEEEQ
T5 sequence (Q9VNB5 1-486 partner): T1 sequence (Q9VNB5 1-486 partner)

[6] = biological target: T6, HassOR13 (Helicoverpa assulta, UniProt A0A0B4ZYC6); conditions: agonist; mass loaded on filter paper in stimulus cartridge (10 μL in paraffin oil), 300 ms pulse; not a molar concentration
T6 construct: gene OR13; ORF in pVALIUM20, UAS-OR transgene expressed in Drosophila at1 neurons (Or67dGAL4 knock-in), host endogenous Orco; with Odorant receptor coreceptor (Drosophila melanogaster, endogenous in host neuron)
T6 sequence (A0A0B4ZYC6 1-425): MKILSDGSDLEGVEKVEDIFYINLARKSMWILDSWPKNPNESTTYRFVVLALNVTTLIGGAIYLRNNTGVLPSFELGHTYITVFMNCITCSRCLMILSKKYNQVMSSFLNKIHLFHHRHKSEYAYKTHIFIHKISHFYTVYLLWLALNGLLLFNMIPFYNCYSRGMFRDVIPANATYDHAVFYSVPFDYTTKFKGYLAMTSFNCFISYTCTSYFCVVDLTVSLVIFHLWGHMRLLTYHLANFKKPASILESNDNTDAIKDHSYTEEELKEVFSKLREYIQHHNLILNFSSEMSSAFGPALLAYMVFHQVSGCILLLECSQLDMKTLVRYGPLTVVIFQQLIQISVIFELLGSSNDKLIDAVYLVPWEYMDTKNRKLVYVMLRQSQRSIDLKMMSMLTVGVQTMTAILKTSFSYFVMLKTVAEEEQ
T6 sequence (Q9VNB5 1-486 partner): T1 sequence (Q9VNB5 1-486 partner)

[7] = biological target: T7, HarmOR16 (Helicoverpa armigera, UniProt A0A7D5JJ30); conditions: agonist; mass loaded on filter paper in stimulus cartridge (10 μL in paraffin oil), 300 ms pulse; not a molar concentration
T7 construct: ORF in pVALIUM20, UAS-OR transgene expressed in Drosophila at1 neurons (Or67dGAL4 knock-in), host endogenous Orco; with Odorant receptor coreceptor (Drosophila melanogaster, endogenous in host neuron)
T7 sequence (A0A7D5JJ30 1-422): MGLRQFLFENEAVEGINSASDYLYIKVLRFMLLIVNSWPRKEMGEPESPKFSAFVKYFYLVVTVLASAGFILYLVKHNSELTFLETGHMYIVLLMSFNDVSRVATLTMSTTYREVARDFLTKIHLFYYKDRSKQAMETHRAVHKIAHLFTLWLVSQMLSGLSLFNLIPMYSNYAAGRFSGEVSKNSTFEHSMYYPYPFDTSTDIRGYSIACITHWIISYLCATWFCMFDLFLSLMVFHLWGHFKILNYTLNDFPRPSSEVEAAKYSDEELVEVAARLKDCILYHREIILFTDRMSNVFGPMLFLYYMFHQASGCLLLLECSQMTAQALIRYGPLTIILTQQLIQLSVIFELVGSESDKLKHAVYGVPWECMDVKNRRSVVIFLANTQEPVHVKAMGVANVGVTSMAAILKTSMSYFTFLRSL
T7 sequence (Q9VNB5 1-486 partner): T1 sequence (Q9VNB5 1-486 partner)

[8] = test system: T8, HvirOR16; design: species or system Heliothis virescens; conditions: agonist; mass loaded on filter paper in stimulus cartridge (10 μL in paraffin oil), 300 ms pulse; not a molar concentration
T8 construct: gene OR16; ORF in pVALIUM20, UAS-OR transgene expressed in Drosophila at1 neurons (Or67dGAL4 knock-in), host endogenous Orco; with Odorant receptor coreceptor (Drosophila melanogaster, endogenous in host neuron)

[9] = biological target: T7, HarmOR16; type: cell-based; conditions: agonist; odorant on filter paper in stimulus cartridge, 300 ms pulse

| EC50 [1] [g] | EC50 [2] [g] | EC50 [3] [g] | EC50 [7] [g] | EC50 [8] [g] | Structure (SMILES) | further results |
| --- | --- | --- | --- | --- | --- | --- |
| 9.66e-05 | 0.000126 | 3.85e-05 | – | – | CCCC/C=C\CCCCCCCCO [Z9-14:OH] | – |
| – | – | – | – | – | CCCC/C=C\CCCCCCCCCC=O [Z11-16:Ald, (Z)-11-hexadecenal] | EC50 [4]: 0.000216 g; EC50 [5]: 0.000213 g; EC50 [6]: 0.000242 g |
| – | 2.75e-05 | – | 0.00126 | – | CCCC/C=C\CCCCCCCC=O [Z9-14:Ald, (Z)-9-tetradecenal] | – |
| 5.99e-05 | – | 5.84e-05 | – | – | CCCCCC/C=C\CCCCCCCCO [Z9-16:OH, (Z)-9-hexadecenol] | – |
| – | – | – | 7.94e-05 | 3.89e-05 | CCCC/C=C\CCCCCCCCCCO [Z11-16:OH, (Z)-11-hexadecenol] | – |
| – | – | – | – | 8.88e-05 | CCCC/C=C\CCCCCCCCCCOC(C)=O [Z11-16:OAc, (Z)-11-hexadecenyl acetate] | single sensillum recording, transgenic fly at1 neurons [9]: responded to the sex pheromone components Z9-14:Ald, Z11-16:OH, and Z11-16:OAc |
